Legend:
Test in all cases: Streptavidin pulldown proteomics (LC-MS/MS), MB49 cells
Assay type in all cases: binding, murine
Details in all cases: MB-49, 50 µM
[1] = target: Elongation factor 1-gamma (EF1γ) (Mus musculus, UniProt Q9D8N0)
Experimental: (§1) We used proteomics to identify potential molecular targets of 5c. A pulldown assay with streptavidin-agarose-coated magnetic beads was performed. Briefly, 5637 and MB49 cells were incubated with 50 µM 5c for 10 min and 1 h. After incubation, the cells were rinsed three times with cold phosphate-buffered saline (PBS), and cell lysates were prepared and clarified by centrifugation to remove cellular debris, including nuclei. The clarified lysates were incubated with streptavidin-coated magnetic beads to selectively bind biotinylated contents. Bound proteins were separated from unbound proteins through thorough bead washing. Proteins attached to the beads were eluted and analyzed on an Orbitrap Fusion Tribrid mass spectrometer (Thermo Scientific, New York, NY, USA) coupled with an Ultimate 3000 nano-UPLC system. Samples were trapped on a PepMap100 C18 trap column (5 µm, 0.3 × 5 mm) and separated on a PepMap RSLC C18 column (2 µm, 75 µm × 150 mm) using a gradient from 2 to 40% acetonitrile with 0.1% formic acid over 120 min at […] and 40 °C. MS data were acquired in positive mode using data-dependent acquisition (DDA), with precursor scans at 120,000 FWHM (400–2000 m/z), and MS/MS scans in top-speed mode (3 s cycle) using HCD fragmentation (NCE 32%). Proteins were identified and quantified based on peptide spectral matches (PSMs), and fold enrichment compared to controls was calculated to evaluate interaction strength.
(§2) The 5637 and MB49 cells were cultured and treated with higher concentrations of 5c (50 µM) for short period of times (10 min & 60 min) followed by whole cell lysis (WCL) preparation of both treated and untreated cells using modified RIPA buffer [NaCl (100mM), TrisCl (20mM, pH 7.4), EDTA (10 mM), TritonX-100 (0.5%), Glycerol (5%), Protease inhibitor cocktail (1x)] with gentle continuous rotation. The protein content of each WCL was estimated using Pierce™ BCA Protein Assay kit (Thermo-Scientific # 23225). The 100 µL of resuspended Dynabeads™ MyOne™ Streptavidin C1 (Invitrogen # 65001) were washed with PBST (PBS with 0.01% Tween™20) in a magnet stand as recommended in the manufacturer’s instructions. The washed beads were incubated with 200 µg of each WCL in separate tubes at room temperature for 2 h in a gentle end-over-end mixing. After incubation, beads were washed 3–5 times with PBST (0.01% Tween-20) on a magnetic stand and beads were decanted by after spinning and magnetization. The samples were stored at −80 °C till further analysis using LC-MS/MS by the Proteomics and Mass Spectrometry Core Laboratory of Augusta University.

Histone H2A.Z = Histone H2A.Z (Mus musculus, UniProt P0C0S6)
Experimental: as §1, §2

[2] = target: Histone H2A type 2-C (HIST2H2AC) (Mus musculus, UniProt Q64523)
Experimental: as §1, §2

HSP 90-alpha (HSP90α) = HSP 90-alpha (HSP90α) (Mus musculus, UniProt P07901)
Experimental: as §1, §2

[3] = target: Eukaryotic translation initiation factor 5B (eIF5B) (Mus musculus, UniProt Q05D44)
Experimental: as §1, §2

[4] = target: Elongation factor 1-delta (EF1δ) (Mus musculus, UniProt P57776)
Experimental: as §1, §2

[5] = target: ATP synthase subunit beta (Mus musculus, UniProt P56480)
Experimental: as §1, §2

[6] = target: D-3-phosphoglycerate dehydrogenase (Mus musculus, UniProt Q61753)
Experimental: as §1, §2

DNA topoisomerase = system: DNA topoisomerase
Experimental: as §1, §2

[7] = target: Heterogeneous nuclear ribonucleoprotein U (HNRNPU) (Mus musculus, UniProt Q8VEK3)
Experimental: as §1, §2

HSP 90-beta (HSP90β) = HSP 90-beta (HSP90β) (Mus musculus, UniProt P11499)
Experimental: as §1, §2

[8] = target: Elongation factor 1-beta (EF1β) (Mus musculus, UniProt O70251)
Experimental: as §1, §2

HSC 71 = HSC 71 (Mus musculus, UniProt P63017)
Experimental: as §1, §2

Histone H4 = Histone H4 (Mus musculus, UniProt P62806)
Experimental: as §1, §2

[9] = system: Splicing factor U2AF 65 kDa subunit (U2AF65)
Experimental: as §1, §2

[10] = target: Rab-like protein 6 (RABL6) (Mus musculus, UniProt Q5U3K5)
Experimental: as §1, §2

Histone H2B type 1-M = Histone H2B type 1-M (Mus musculus, UniProt P10854)
Experimental: as §1, §2

[11] = target: T-complex protein 1 subunit theta (Mus musculus, UniProt P42932)
Experimental: as §1, §2

[12] = system: Coiled-coil domain-containing protein
Experimental: as §1, §2

[13] = target: Ras GTPase-activating-like protein IQGAP1 (Mus musculus, UniProt Q9JKF1)
Experimental: as §1, §2

[14] = target: Ribosomal L1 domain-containing protein 1 (RSL1D1) (Mus musculus, UniProt Q8BVY0)
Experimental: as §1, §2

Heterogeneous nuclear ribonucleoprotein U (HNRNPU), sequence (Q8VEK3 whole entry): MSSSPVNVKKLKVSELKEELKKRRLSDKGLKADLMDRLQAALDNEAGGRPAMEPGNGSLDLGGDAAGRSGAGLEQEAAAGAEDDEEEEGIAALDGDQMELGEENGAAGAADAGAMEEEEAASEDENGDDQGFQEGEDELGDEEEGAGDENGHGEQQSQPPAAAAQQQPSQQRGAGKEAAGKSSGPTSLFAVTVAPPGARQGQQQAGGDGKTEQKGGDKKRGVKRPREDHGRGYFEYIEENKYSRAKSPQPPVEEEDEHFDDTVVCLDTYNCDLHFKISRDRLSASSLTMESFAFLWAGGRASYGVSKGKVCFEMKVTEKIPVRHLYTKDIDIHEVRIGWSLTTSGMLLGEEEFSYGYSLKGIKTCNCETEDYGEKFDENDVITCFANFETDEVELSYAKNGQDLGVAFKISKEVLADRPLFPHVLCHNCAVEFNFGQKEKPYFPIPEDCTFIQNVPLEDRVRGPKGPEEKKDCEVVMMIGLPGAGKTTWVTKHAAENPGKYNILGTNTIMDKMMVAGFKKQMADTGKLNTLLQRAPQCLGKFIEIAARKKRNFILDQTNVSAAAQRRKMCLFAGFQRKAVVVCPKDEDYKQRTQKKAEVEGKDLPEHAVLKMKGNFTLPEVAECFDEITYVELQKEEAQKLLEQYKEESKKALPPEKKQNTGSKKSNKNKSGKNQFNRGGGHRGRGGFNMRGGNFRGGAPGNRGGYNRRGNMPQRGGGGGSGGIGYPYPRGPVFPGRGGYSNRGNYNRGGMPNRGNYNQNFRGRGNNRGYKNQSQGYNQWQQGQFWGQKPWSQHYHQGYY
T-complex protein 1 subunit theta, sequence (P42932 2-548 limits assumed, one chain of several): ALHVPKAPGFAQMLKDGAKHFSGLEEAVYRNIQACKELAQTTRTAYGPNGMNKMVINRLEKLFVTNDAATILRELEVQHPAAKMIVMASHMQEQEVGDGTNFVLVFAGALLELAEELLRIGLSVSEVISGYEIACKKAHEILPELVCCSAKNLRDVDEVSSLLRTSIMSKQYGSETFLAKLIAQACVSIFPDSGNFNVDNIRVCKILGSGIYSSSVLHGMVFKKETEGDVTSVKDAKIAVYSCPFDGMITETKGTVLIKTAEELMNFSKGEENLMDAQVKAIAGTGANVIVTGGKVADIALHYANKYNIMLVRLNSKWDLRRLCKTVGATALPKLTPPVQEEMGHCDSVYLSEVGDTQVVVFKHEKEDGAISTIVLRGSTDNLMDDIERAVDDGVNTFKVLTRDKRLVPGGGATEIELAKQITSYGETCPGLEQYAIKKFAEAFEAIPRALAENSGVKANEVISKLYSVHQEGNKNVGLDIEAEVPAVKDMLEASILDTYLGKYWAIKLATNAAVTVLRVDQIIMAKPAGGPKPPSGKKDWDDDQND
D-3-phosphoglycerate dehydrogenase, sequence (Q61753 whole entry): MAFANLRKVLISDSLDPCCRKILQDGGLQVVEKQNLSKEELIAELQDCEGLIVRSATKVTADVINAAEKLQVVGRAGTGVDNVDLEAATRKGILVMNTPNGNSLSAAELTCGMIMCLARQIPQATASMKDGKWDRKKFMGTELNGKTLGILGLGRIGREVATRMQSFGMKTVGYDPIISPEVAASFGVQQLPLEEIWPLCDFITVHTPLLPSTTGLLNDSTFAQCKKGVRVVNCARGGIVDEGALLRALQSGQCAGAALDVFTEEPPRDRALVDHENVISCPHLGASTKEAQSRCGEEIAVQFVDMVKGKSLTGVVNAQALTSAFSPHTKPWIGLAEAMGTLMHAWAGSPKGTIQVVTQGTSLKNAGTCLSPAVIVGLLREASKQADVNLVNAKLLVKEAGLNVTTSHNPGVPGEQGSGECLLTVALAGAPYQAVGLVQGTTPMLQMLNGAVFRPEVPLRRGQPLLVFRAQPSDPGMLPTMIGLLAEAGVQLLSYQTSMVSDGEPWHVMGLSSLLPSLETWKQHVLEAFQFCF
Eukaryotic translation initiation factor 5B (eIF5B), sequence (Q05D44 whole entry): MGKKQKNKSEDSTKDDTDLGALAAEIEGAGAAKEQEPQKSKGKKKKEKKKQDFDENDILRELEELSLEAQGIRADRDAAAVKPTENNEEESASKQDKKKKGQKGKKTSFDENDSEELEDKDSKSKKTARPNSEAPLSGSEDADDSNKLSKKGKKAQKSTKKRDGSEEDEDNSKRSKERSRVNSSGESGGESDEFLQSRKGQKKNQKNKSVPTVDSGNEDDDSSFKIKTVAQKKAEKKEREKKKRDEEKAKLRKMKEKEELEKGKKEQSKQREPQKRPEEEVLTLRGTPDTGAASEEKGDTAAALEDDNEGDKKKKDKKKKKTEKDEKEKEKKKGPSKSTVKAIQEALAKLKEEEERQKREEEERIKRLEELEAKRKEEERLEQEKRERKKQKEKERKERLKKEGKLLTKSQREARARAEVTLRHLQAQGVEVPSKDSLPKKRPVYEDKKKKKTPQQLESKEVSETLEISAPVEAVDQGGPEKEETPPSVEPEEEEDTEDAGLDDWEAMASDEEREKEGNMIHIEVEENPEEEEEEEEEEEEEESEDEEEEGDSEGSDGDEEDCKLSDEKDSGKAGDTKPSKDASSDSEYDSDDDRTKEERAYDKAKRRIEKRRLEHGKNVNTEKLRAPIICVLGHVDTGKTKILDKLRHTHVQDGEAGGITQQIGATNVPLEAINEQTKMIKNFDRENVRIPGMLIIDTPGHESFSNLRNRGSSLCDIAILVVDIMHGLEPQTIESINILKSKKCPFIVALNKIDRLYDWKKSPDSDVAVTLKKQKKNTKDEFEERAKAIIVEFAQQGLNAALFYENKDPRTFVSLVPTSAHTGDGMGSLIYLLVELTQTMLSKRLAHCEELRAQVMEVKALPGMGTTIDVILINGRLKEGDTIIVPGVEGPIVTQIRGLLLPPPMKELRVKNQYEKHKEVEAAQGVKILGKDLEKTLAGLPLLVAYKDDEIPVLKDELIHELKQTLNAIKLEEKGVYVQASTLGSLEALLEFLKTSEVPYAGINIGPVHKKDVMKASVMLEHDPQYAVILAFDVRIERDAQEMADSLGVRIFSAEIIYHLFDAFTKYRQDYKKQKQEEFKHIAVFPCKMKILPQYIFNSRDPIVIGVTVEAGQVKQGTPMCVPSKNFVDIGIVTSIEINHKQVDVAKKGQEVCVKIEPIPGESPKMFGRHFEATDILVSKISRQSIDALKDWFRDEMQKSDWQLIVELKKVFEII
Elongation factor 1-delta (EF1δ), sequence (P57776 whole entry): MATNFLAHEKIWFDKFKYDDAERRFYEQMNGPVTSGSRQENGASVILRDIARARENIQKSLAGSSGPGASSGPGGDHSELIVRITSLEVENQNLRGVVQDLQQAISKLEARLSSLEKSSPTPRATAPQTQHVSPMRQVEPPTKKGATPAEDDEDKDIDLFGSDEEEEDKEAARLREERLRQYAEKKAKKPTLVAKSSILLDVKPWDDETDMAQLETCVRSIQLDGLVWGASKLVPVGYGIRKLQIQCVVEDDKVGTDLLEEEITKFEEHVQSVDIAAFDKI
Histone H2A.Z, sequence (P0C0S6 whole entry): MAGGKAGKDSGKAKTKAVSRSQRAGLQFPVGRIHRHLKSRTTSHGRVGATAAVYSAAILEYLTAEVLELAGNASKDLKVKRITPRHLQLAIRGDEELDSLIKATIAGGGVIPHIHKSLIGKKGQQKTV
Ribosomal L1 domain-containing protein 1 (RSL1D1), sequence (Q8BVY0 whole entry, the tested form may be a part): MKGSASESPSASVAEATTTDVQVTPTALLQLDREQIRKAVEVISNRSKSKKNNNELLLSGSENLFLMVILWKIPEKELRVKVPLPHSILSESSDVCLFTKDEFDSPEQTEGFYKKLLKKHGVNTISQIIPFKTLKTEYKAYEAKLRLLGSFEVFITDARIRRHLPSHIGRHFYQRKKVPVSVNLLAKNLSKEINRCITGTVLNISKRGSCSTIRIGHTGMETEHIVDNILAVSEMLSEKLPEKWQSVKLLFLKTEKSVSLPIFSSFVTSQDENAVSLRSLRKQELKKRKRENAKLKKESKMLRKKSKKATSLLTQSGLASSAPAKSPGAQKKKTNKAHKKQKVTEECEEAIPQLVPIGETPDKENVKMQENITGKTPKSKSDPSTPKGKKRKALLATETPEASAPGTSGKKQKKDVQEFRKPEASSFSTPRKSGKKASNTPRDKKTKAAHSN
Elongation factor 1-beta (EF1β), sequence (O70251 whole entry): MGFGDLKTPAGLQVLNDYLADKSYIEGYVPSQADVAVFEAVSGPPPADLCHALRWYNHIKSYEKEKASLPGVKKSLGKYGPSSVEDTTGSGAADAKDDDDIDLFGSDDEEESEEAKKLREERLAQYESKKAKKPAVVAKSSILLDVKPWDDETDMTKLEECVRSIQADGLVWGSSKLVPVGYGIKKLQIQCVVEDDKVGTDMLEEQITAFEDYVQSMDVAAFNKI
HSP 90-beta (HSP90β), sequence (P11499 whole entry): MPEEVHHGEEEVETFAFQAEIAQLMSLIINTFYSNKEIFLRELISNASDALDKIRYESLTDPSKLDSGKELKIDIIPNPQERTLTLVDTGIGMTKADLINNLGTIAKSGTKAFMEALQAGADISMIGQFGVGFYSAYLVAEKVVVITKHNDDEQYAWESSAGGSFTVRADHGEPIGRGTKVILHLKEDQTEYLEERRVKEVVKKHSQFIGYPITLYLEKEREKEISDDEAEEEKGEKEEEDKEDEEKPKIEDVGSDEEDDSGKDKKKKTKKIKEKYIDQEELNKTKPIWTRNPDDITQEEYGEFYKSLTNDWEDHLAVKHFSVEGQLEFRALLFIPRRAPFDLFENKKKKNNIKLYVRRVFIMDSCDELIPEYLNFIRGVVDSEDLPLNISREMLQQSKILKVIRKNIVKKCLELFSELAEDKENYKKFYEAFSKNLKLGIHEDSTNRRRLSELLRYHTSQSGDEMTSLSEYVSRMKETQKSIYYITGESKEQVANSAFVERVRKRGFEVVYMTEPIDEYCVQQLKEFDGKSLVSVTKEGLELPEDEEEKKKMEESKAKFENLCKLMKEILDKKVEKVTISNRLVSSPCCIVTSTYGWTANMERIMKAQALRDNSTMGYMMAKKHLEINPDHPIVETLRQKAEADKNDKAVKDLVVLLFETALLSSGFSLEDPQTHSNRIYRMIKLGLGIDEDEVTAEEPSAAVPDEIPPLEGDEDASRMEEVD

SMILES: CC1CCC2(C(=O)OCCCCOC(=O)CCCCC3SCC4NC(=O)NC43)CCC3(C)C(=CCC4C5(C)CCC(O)C(C)(C)C5CCC43C)C2C1C [Compound 5c, 4-((5-((3aS,4S,6aR)-2-Oxohexahydro-1H-thieno [3,4-d]imidazol-4-yl)pentanoyl)oxy) butyl 3-hydroxy-urs-12-en-28-oate]
- Fold Change 1 h/Ctrl [1]: 1
- Fold Change 10 min/Ctrl (Histone H2A.Z): 1.86
- Fold Change 1 h/Ctrl (Histone H2A.Z): 1.20
- Fold Change 10 min/Ctrl [2]: 1.58
- Fold Change 1 h/Ctrl [2]: 1.27
- Fold Change 10 min/Ctrl (HSP 90-alpha (HSP90α)): 1.07
- Fold Change 1 h/Ctrl (HSP 90-alpha (HSP90α)): 1.25
- Fold Change 10 min/Ctrl [3]: 3
- Fold Change 1 h/Ctrl [3]: 2.75
- Fold Change 10 min/Ctrl [4]: 1.4
- Fold Change 1 h/Ctrl [4]: 2
- Fold Change 10 min/Ctrl [5]: 1.31
- Fold Change 1 h/Ctrl [5]: 1.82
- Fold Change 10 min/Ctrl [6]: 0.8
- Fold Change 1 h/Ctrl [6]: 1.6
- Fold Change 10 min/Ctrl (DNA topoisomerase): 1
- Fold Change 1 h/Ctrl (DNA topoisomerase): 1.75
- Fold Change 10 min/Ctrl [7]: 2.38
- Fold Change 1 h/Ctrl [7]: 2.13
- Fold Change 10 min/Ctrl (HSP 90-beta (HSP90β)): 1.40
- Fold Change 1 h/Ctrl (HSP 90-beta (HSP90β)): 1.71
- Fold Change 10 min/Ctrl [8]: 5
- Fold Change 1 h/Ctrl [8]: 5
- Fold Change 10 min/Ctrl (HSC 71): 1.5
- Fold Change 1 h/Ctrl (HSC 71): 2
- Fold Change 10 min/Ctrl (Histone H4): 1.64
- Fold Change 1 h/Ctrl (Histone H4): 1.18
- Fold Change 10 min/Ctrl [9]: 4
- Fold Change 1 h/Ctrl [9]: 3
- Fold Change 10 min/Ctrl [10]: 3
- Fold Change 1 h/Ctrl [10]: 5.5
- Fold Change 10 min/Ctrl (Histone H2B type 1-M): 2.04
- Fold Change 1 h/Ctrl (Histone H2B type 1-M): 1.81
- Fold Change 10 min/Ctrl [11]: 2
- Fold Change 1 h/Ctrl [11]: 3
- Fold Change 10 min/Ctrl [12]: 0
- Fold Change 1 h/Ctrl [12]: 0
- Fold Change 10 min/Ctrl [13]: 1
- Fold Change 1 h/Ctrl [13]: 3
- Fold Change 10 min/Ctrl [14]: 1.33
- Fold Change 1 h/Ctrl [14]: 1.56

Source: paper PMC12692861, “Biotin-Linked Ursolic Acid Conjugates as Selective Anticancer Agents and Target-Identification Tools for Cancer Therapy” (Molecules, 2025)
